From ChEMBL document CHEMBL1201862, “PubChem BioAssay data set” (2004)
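Where inhibition never reached the appropriate level, the endpoint shown equals the highest concentration tested. Otherwise, values were interpolated linearly from a five-concentration, 48-hour dose response in 96-well plates. Abbreviation: GI50, concentration required for 50% inhibition of growth.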 Activity calls are given as the source filed them. No stated cut-off is given here; in the data, active = GI50 up to about 1.1 µM and inactive = higher.

Tests used:
Experiment in all cases: inhibition of tumour cell growth, NCI panel, 48 h
HL-60 = tested on: HL-60
K562 = tested on: K562
MOLT-4 = tested on: MOLT-4
OVCAR-5 = tested on: OVCAR-5
UACC-62 = tested on: UACC-62
SF-539 = tested on: SF-539
RPMI-8226 = tested on: RPMI-8226
HOP-62 = tested on: HOP-62
SK-MEL-2 = tested on: SK-MEL-2
ACHN = tested on: ACHN
SN12C = tested on: SN12C
MCF7 = tested on: MCF7
SR = tested on: SR
NCI-H460 = tested on: NCI-H460
OVCAR-4 = tested on: OVCAR-4
OVCAR-8 = tested on: OVCAR-8
SK-MEL-28 = tested on: SK-MEL-28
M14 = tested on: M14
NCI-H226 = tested on: NCI-H226

Measured: GI50

Cc1c(-c2ccccc2)c(C#N)c2nnc(C(N)=O)c(N)n12
inactive: HL-60 > 100 µM | K562 > 100 µM | MOLT-4 > 100 µM | OVCAR-5 > 100 µM | UACC-62 > 100 µM | SF-539 > 100 µM | RPMI-8226 > 100 µM | HOP-62 > 100 µM | SK-MEL-2 > 100 µM | ACHN > 100 µM | SN12C > 100 µM | MCF7 > 100 µM | SR > 100 µM | NCI-H460 > 100 µM | OVCAR-4 > 100 µM | OVCAR-8 > 100 µM | SK-MEL-28 > 100 µM | M14 > 100 µM

O=S(=O)(/N=C1/S/C(=N\c2ccccc2)N(c2ccccc2)/C1=N/S(=O)(=O)c1ccccc1)c1ccccc1
inactive: NCI-H226 19.8 µM | HL-60 22.6 µM | K562 23.9 µM | MOLT-4 21.4 µM | OVCAR-5 20.8 µM | UACC-62 17.2 µM | RPMI-8226 17.7 µM | HOP-62 28.5 µM | SK-MEL-2 15.2 µM | ACHN 19.5 µM | SN12C 12.4 µM | MCF7 20.5 µM | SR 18.1 µM | NCI-H460 21.3 µM | OVCAR-8 22.8 µM | SK-MEL-28 16.6 µM | M14 20.4 µM

CSC1=C(SC)SC(=C2SC3=C(SC(=C4SCCS4)S3)S2)S1
inactive: NCI-H226 > 100 µM | HL-60 > 100 µM | MOLT-4 > 100 µM | OVCAR-5 > 100 µM | UACC-62 > 100 µM | SF-539 > 100 µM | RPMI-8226 > 100 µM | HOP-62 > 100 µM | SK-MEL-2 > 100 µM | ACHN > 100 µM | SN12C > 100 µM | MCF7 > 100 µM | SR > 100 µM | NCI-H460 > 100 µM | OVCAR-4 > 100 µM | OVCAR-8 > 100 µM | SK-MEL-28 > 100 µM | M14 > 100 µM

CC(=O)NC1C(OCc2ccccc2)OC(CO)C(O)C1OCC(=O)N[C@@H](C)C(=O)N[C@H](CCC(=O)NCCNCCNc1c2ccccc2nc2cccc([N+](=O)[O-])c12)C(N)=O (stereo partly drawn)
inactive: HL-60 26.2 µM | K562 32.3 µM | OVCAR-5 53.3 µM | UACC-62 17.7 µM | SF-539 33.3 µM | RPMI-8226 24.4 µM | HOP-62 41.4 µM | SK-MEL-2 22.3 µM | ACHN 26.7 µM | SN12C 59.7 µM | MCF7 37.9 µM | SR 18.1 µM | NCI-H460 15.1 µM | OVCAR-4 17.3 µM | OVCAR-8 27.4 µM | SK-MEL-28 > 100 µM | M14 56 µM

O=c1oc2ccccc2cc1-c1cn2ccccc2n1
inactive: NCI-H226 8.43 µM | K562 10.2 µM | MOLT-4 18.6 µM | OVCAR-5 21.7 µM | UACC-62 4.65 µM | SF-539 4.17 µM | RPMI-8226 10.4 µM | HOP-62 3.24 µM | SK-MEL-2 5 µM | ACHN 3.49 µM | SN12C 4.6 µM | MCF7 13.8 µM | SR 3.85 µM | NCI-H460 4.16 µM | OVCAR-4 4.08 µM | OVCAR-8 3.21 µM | SK-MEL-28 4.4 µM | M14 8.51 µM

CC1=NN(c2nc(N)nc(CS(C)(=O)=O)n2)C(C)(C)C1
inactive: HL-60 > 100 µM | K562 > 100 µM | MOLT-4 > 100 µM | UACC-62 > 100 µM | SF-539 > 100 µM | RPMI-8226 > 100 µM | HOP-62 > 100 µM | SK-MEL-2 > 100 µM | ACHN > 100 µM | MCF7 > 100 µM | SR > 100 µM | NCI-H460 > 100 µM | OVCAR-4 > 100 µM | OVCAR-8 > 100 µM | SK-MEL-28 > 100 µM | M14 > 100 µM

CCn1nc2c3c(ncn3C(C)(C)O2)c1=O
inactive: NCI-H226 > 100 µM | HL-60 > 100 µM | K562 > 100 µM | MOLT-4 > 100 µM | OVCAR-5 > 100 µM | UACC-62 > 100 µM | RPMI-8226 > 100 µM | HOP-62 > 100 µM | SK-MEL-2 > 100 µM | ACHN > 100 µM | SN12C > 100 µM | MCF7 > 100 µM | SR > 100 µM | NCI-H460 > 100 µM | OVCAR-4 > 100 µM | SK-MEL-28 > 100 µM | M14 > 100 µM

CN1CCN(Cc2ccc(C(=S)Nc3ccccc3)s2)CC1
inactive: HL-60 19.9 µM | K562 25.9 µM | MOLT-4 36.8 µM | OVCAR-5 45.8 µM | UACC-62 20.2 µM | SF-539 82.4 µM | RPMI-8226 28.6 µM | HOP-62 93.8 µM | SK-MEL-2 41.8 µM | ACHN 92 µM | MCF7 41.9 µM | SR 21.2 µM | NCI-H460 36.4 µM | OVCAR-4 54.1 µM | OVCAR-8 14.5 µM | SK-MEL-28 15.5 µM | M14 16.7 µM
